Drawing on US20230183292A1, “IMMUNOMODULATORS” (priority 2020, published 2023), this text covers IC50 for nine molecules.

Structures are written as SMILES. Like-named read-outs stand apart in the source and are kept apart here. Starred links: 1 amine or outer side, 2 acyl side, 3 side chain; linkers in the order of their positions; H or OH if unused. Positions of bridges follow the written chain, without caps; N, C: chain ends. Non-standard residues stand in square brackets, D forms with d. Residues, ends and D or L forms follow the SMILES beside them. Groups on a side chain read outwards from the residue. *: point of attachment. Cholyl = C[C@H](CCC(=O)*)[C@H]1CC[C@H]2[C@@H]3[C@H](O)C[C@@H]4C[C@H](O)CC[C@]4(C)[C@H]3C[C@H](O)[C@]12C; Dehydrocholoyl = C[C@H](CCC(=O)*)[C@H]1CC[C@H]2[C@@H]3C(=O)C[C@@H]4CC(=O)CC[C@]4(C)[C@H]3CC(=O)[C@]12C; X35 = O=C(Cn1cc(C[C@H](N[*:1])C(=O)[*:2])c2ccccc21)NCC(F)(F)F; X27 = O=C(Cn1cc(C[C@H](N[*:1])C(=O)[*:2])c2ccccc21)Oc1ccccc1; X22 = O=C(Cn1cc(C[C@H](N[*:1])C(=O)[*:2])c2ccccc21)NCCC1CC1; X4 = O=C(Cn1cc(C[C@H](N[*:1])C(=O)[*:2])c2ccccc21)OCCOCCO; X32 = CCCNC(=O)Cn1cc(C[C@H](N[*:1])C(=O)[*:2])c2ccccc21; X1 = NCCNC(=O)Cn1cc(C[C@H](N[*:1])C(=O)[*:2])c2ccccc21; Pro(4R-Me) = C[C@H]1CN[C@H](C(=O)O)C1; Hyp = O=C(O)[C@@H]1C[C@@H](O)CN1; NMeNle = CCCC[C@H](NC)C(=O)O; NMeA = CN[C@@H](C)C(=O)O; Dab = NCC[C@H](N)C(=O)O; Dap = NC[C@H](N)C(=O)O

For this assay, the target named is T1, PD-1/PD-L1 (Homo sapiens, UniProt Q9NZQ7).
T1 construct: TVMV protease site (C); made in house; host or cells: HEK293T cells
The experiment in a line: PD-1/PD-L1 Homogenous Time-Resolved Fluorescence (HTRF) binding assay. The note with it: PD-1-Ig 20 nM. Put shortly: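 Inhibitors pre-incubated 15 min with PD-L1-His (10 nM final) in dPBS, 0.1% BSA, 0.05% Tween-20, then 15 min with PD-1-Ig (20 nM final). Eu-cryptate anti-Ig (1 nM) and APC anti-His (20 nM) added, 30 min equilibration; HTRF 665/620 nm ratio. Human ECD proteins from HEK293T.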

[1] abbreviates: PD-L1-His 10 nM, read-out: HTRF IC50.

T1 sequence (Q9NZQ7 18-239): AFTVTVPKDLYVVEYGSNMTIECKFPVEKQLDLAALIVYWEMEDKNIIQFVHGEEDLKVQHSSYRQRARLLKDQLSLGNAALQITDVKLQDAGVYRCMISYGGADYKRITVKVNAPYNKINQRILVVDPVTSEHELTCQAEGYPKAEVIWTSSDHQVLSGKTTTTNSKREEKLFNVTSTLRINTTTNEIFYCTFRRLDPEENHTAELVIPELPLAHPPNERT

As to `CCCC[C@H]1C(=O)N(C)[C@@H](CCCC)C(=O)N[C@@H](CC(C)C)C(=O)N[C@H](C(=O)NCC(N)=O)CSCC(=O)N[C@@H](Cc2ccc(O)cc2)C(=O)N(C)[C@@H](C)C(=O)N[C@@H](CC(N)=O)C(=O)N2CCC[C@H]2C(=O)N[C@@H](CNC(=O)CC[C@@H](C)[C@H]2CC[C@H]3[C@@H]4C(=O)C[C@@H]5CC(=O)CC[C@]5(C)[C@H]4CC(=O)[C@]23C)C(=O)N[C@@H](CC(C)C)C(=O)N2C[C@H](O)C[C@H]2C(=O)N[C@@H](Cc2c[nH]c3ccccc23)C(=O)N[C@@H](CCNC(=O)CC[C@@H](C)[C@H]2CC[C@H]3[C@@H]4C(=O)C[C@@H]5CC(=O)CC[C@]5(C)[C@H]4CC(=O)[C@]23C)C(=O)N[C@@H](Cc2cn(CC(=O)Oc3ccccc3)c3ccccc23)C(=O)N1C` [Example 2015] ({CH2CO}-Y[NMeA]NP[Dap](Dehydrocholoyl)L[Hyp]W[Dab](Dehydrocholoyl)[X27][NMeNle][NMeNle]LCG-NH2; thioether N-14), the IC50 (HTRF IC50, PD-L1-His 10 nM) came out at 0.02 µM.

As for `CCCC[C@H]1C(=O)N(C)[C@@H](CCCC)C(=O)N[C@@H](CC(C)C)C(=O)N[C@H](C(=O)NCC(N)=O)CSCC(=O)N[C@@H](Cc2ccc(O)cc2)C(=O)N(C)[C@@H](C)C(=O)N[C@@H](CC(N)=O)C(=O)N2CCC[C@H]2C(=O)N[C@@H](CNC(=O)CC[C@@H](C)[C@H]2CC[C@H]3[C@@H]4C(=O)C[C@@H]5CC(=O)CC[C@]5(C)[C@H]4CC(=O)[C@]23C)C(=O)N[C@@H](CC(C)C)C(=O)N2C[C@H](O)C[C@H]2C(=O)N[C@@H](Cc2c[nH]c3ccccc23)C(=O)N[C@@H](CCNC(=O)CC[C@@H](C)[C@H]2CC[C@H]3[C@@H]4C(=O)C[C@@H]5CC(=O)CC[C@]5(C)[C@H]4CC(=O)[C@]23C)C(=O)N[C@@H](Cc2cn(CC(=O)OCCOCCO)c3ccccc23)C(=O)N1C` [Example 2016] ({CH2CO}-Y[NMeA]NP[Dap](Dehydrocholoyl)L[Hyp]W[Dab](Dehydrocholoyl)[X4][NMeNle][NMeNle]LCG-NH2; thioether N-14), under setting [1], the IC50 was found to be 0.015 µM.

As to `CCCC[C@H]1C(=O)N(C)[C@@H](CCCC)C(=O)N[C@@H](CC(C)C)C(=O)N[C@H](C(=O)NCC(N)=O)CSCC(=O)N[C@@H](Cc2ccc(O)cc2)C(=O)N(C)[C@@H](C)C(=O)N[C@@H](CC(N)=O)C(=O)N2CCC[C@H]2C(=O)N[C@@H](CNC(=O)CC[C@@H](C)[C@H]2CC[C@H]3[C@@H]4C(=O)C[C@@H]5CC(=O)CC[C@]5(C)[C@H]4CC(=O)[C@]23C)C(=O)N[C@@H](CC(C)C)C(=O)N2C[C@H](O)C[C@H]2C(=O)N[C@@H](Cc2c[nH]c3ccccc23)C(=O)N[C@@H](CCNC(=O)CC[C@@H](C)[C@H]2CC[C@H]3[C@@H]4C(=O)C[C@@H]5CC(=O)CC[C@]5(C)[C@H]4CC(=O)[C@]23C)C(=O)N[C@@H](Cc2cn(CC(=O)NCC(F)(F)F)c3ccccc23)C(=O)N1C` [Example 2018] ({CH2CO}-Y[NMeA]NP[Dap](Dehydrocholoyl)L[Hyp]W[Dab](Dehydrocholoyl)[X35][NMeNle][NMeNle]LCG-NH2; thioether N-14), under setting [1], the IC50 worked out at 0.017 µM.

For `CCCC[C@H]1C(=O)N(C)[C@@H](CCCC)C(=O)N[C@@H](CC(C)C)C(=O)N[C@H](C(=O)NCC(N)=O)CSCC(=O)N[C@@H](Cc2ccc(O)cc2)C(=O)N(C)[C@@H](C)C(=O)N[C@@H](CC(N)=O)C(=O)N2CCC[C@H]2C(=O)N[C@@H](CNC(=O)CC[C@@H](C)[C@H]2CC[C@H]3[C@@H]4C(=O)C[C@@H]5CC(=O)CC[C@]5(C)[C@H]4CC(=O)[C@]23C)C(=O)N[C@@H](CC(C)C)C(=O)N2C[C@H](O)C[C@H]2C(=O)N[C@@H](Cc2c[nH]c3ccccc23)C(=O)N[C@@H](CCNC(=O)CC[C@@H](C)[C@H]2CC[C@H]3[C@@H]4C(=O)C[C@@H]5CC(=O)CC[C@]5(C)[C@H]4CC(=O)[C@]23C)C(=O)N[C@@H](Cc2cn(CC(=O)NCCN)c3ccccc23)C(=O)N1C` [Example 2019] ({CH2CO}-Y[NMeA]NP[Dap](Dehydrocholoyl)L[Hyp]W[Dab](Dehydrocholoyl)[X1][NMeNle][NMeNle]LCG-NH2; thioether N-14), the IC50 under setting [1] amounted to 0.019 µM.

Take `CCCC[C@H]1C(=O)N(C)[C@@H](CCCC)C(=O)N[C@@H](CC(C)C)C(=O)N[C@H](C(=O)NCC(N)=O)CSCC(=O)N[C@@H](Cc2ccc(O)cc2)C(=O)N(C)[C@@H](C)C(=O)N[C@@H](CC(N)=O)C(=O)N2CCC[C@H]2C(=O)N[C@@H](CNC(=O)CC[C@@H](C)[C@H]2CC[C@H]3[C@@H]4[C@H](O)C[C@@H]5C[C@H](O)CC[C@]5(C)[C@H]4C[C@H](O)[C@]23C)C(=O)N[C@@H](CC(C)C)C(=O)N2C[C@H](O)C[C@H]2C(=O)N[C@@H](Cc2c[nH]c3ccccc23)C(=O)N[C@@H](CCNC(=O)CC[C@@H](C)[C@H]2CC[C@H]3[C@@H]4[C@H](O)C[C@@H]5C[C@H](O)CC[C@]5(C)[C@H]4C[C@H](O)[C@]23C)C(=O)N[C@@H](Cc2cn(CC(=O)NCCN)c3ccccc23)C(=O)N1C` [Example 2021] ({CH2CO}-Y[NMeA]NP[Dap](Cholyl)L[Hyp]W[Dab](Cholyl)[X1][NMeNle][NMeNle]LCG-NH2; thioether N-14): under setting [1], the IC50 turned out to be 0.18 µM.

With `CCCC[C@H]1C(=O)N(C)[C@@H](CCCC)C(=O)N[C@@H](CC(C)C)C(=O)N[C@H](C(=O)NCC(N)=O)CSCC(=O)N[C@@H](Cc2ccc(O)cc2)C(=O)N(C)[C@@H](C)C(=O)N[C@@H](CC(N)=O)C(=O)N2CCC[C@H]2C(=O)N[C@@H](CNC(=O)CC[C@@H](C)[C@H]2CC[C@H]3[C@@H]4[C@H](O)C[C@@H]5C[C@H](O)CC[C@]5(C)[C@H]4C[C@H](O)[C@]23C)C(=O)N[C@@H](CC(C)C)C(=O)N2C[C@H](O)C[C@H]2C(=O)N[C@@H](Cc2c[nH]c3ccccc23)C(=O)N[C@@H](CCNC(=O)CC[C@@H](C)[C@H]2CC[C@H]3[C@@H]4[C@H](O)C[C@@H]5C[C@H](O)CC[C@]5(C)[C@H]4C[C@H](O)[C@]23C)C(=O)N[C@@H](Cc2cn(CC(=O)NCCC)c3ccccc23)C(=O)N1C` [Example 2023] ({CH2CO}-Y[NMeA]NP[Dap](Cholyl)L[Hyp]W[Dab](Cholyl)[X32][NMeNle][NMeNle]LCG-NH2; thioether N-14), under setting [1], the IC50 worked out at 0.66 µM.

Take `CCCC[C@H]1C(=O)N(C)[C@@H](CCCC)C(=O)N[C@@H](CC(C)C)C(=O)N[C@H](C(=O)NCC(N)=O)CSCC(=O)N[C@@H](Cc2ccc(O)cc2)C(=O)N(C)[C@@H](C)C(=O)N[C@@H](CC(N)=O)C(=O)N2CCC[C@H]2C(=O)N[C@@H](CNC(=O)CNC(=O)CC[C@@H](C)[C@H]2CC[C@H]3[C@@H]4[C@H](O)C[C@@H]5C[C@H](O)CC[C@]5(C)[C@H]4C[C@H](O)[C@]23C)C(=O)N[C@@H](CC(C)C)C(=O)N2C[C@H](C)C[C@H]2C(=O)N[C@@H](Cc2c[nH]c3ccccc23)C(=O)N[C@@H](CCNC(=O)CNC(=O)CC[C@@H](C)[C@H]2CC[C@H]3[C@@H]4[C@H](O)C[C@@H]5C[C@H](O)CC[C@]5(C)[C@H]4C[C@H](O)[C@]23C)C(=O)N[C@@H](Cc2cn(CC(=O)NCCN)c3ccccc23)C(=O)N1C` [Example 2026] ({CH2CO}-Y[NMeA]NP[Dap]([Gly-Cholyl])L[Pro(4R-Me)]W[Dab]([Gly-Cholyl])[X1][NMeNle][NMeNle]LCG-NH2; thioether N-14): under setting [1], the IC50 turned out to be 0.4 µM.

Turning to `CCCC[C@H]1C(=O)N(C)[C@@H](CCCC)C(=O)N[C@@H](CC(C)C)C(=O)N[C@H](C(=O)NCC(N)=O)CSCC(=O)N[C@@H](Cc2ccc(O)cc2)C(=O)N(C)[C@@H](C)C(=O)N[C@@H](CC(N)=O)C(=O)N2CCC[C@H]2C(=O)N[C@@H](CNC(=O)CNC(=O)CC[C@@H](C)[C@H]2CC[C@H]3[C@@H]4[C@H](O)C[C@@H]5C[C@H](O)CC[C@]5(C)[C@H]4C[C@H](O)[C@]23C)C(=O)N[C@@H](CC(C)C)C(=O)N2C[C@H](C)C[C@H]2C(=O)N[C@@H](Cc2c[nH]c3ccccc23)C(=O)N[C@@H](CCNC(=O)CNC(=O)CC[C@@H](C)[C@H]2CC[C@H]3[C@@H]4[C@H](O)C[C@@H]5C[C@H](O)CC[C@]5(C)[C@H]4C[C@H](O)[C@]23C)C(=O)N[C@@H](Cc2cn(CC(=O)NCCC)c3ccccc23)C(=O)N1C` [Example 2027] ({CH2CO}-Y[NMeA]NP[Dap]([Gly-Cholyl])L[Pro(4R-Me)]W[Dab]([Gly-Cholyl])[X32][NMeNle][NMeNle]LCG-NH2; thioether N-14), under setting [1], the IC50 worked out at 0.99 µM.

`CCCC[C@H]1C(=O)N(C)[C@@H](CCCC)C(=O)N[C@@H](CC(C)C)C(=O)N[C@H](C(=O)NCC(N)=O)CSCC(=O)N[C@@H](Cc2ccc(O)cc2)C(=O)N(C)[C@@H](C)C(=O)N[C@@H](CC(N)=O)C(=O)N2CCC[C@H]2C(=O)N[C@@H](CNC(=O)CNC(=O)CC[C@@H](C)[C@H]2CC[C@H]3[C@@H]4[C@H](O)C[C@@H]5C[C@H](O)CC[C@]5(C)[C@H]4C[C@H](O)[C@]23C)C(=O)N[C@@H](CC(C)C)C(=O)N2C[C@H](C)C[C@H]2C(=O)N[C@@H](Cc2c[nH]c3ccccc23)C(=O)N[C@@H](CCNC(=O)CNC(=O)CC[C@@H](C)[C@H]2CC[C@H]3[C@@H]4[C@H](O)C[C@@H]5C[C@H](O)CC[C@]5(C)[C@H]4C[C@H](O)[C@]23C)C(=O)N[C@@H](Cc2cn(CC(=O)NCCC3CC3)c3ccccc23)C(=O)N1C` [Example 2028] ({CH2CO}-Y[NMeA]NP[Dap]([Gly-Cholyl])L[Pro(4R-Me)]W[Dab]([Gly-Cholyl])[X22][NMeNle][NMeNle]LCG-NH2; thioether N-14): under setting [1], the IC50 is 0.66 µM.
